Results from patent publication US10532985B2, “Heterocycle and carbocycle derivatives having TRKA inhibitory activity” (Shionogi & Co., Ltd., priority 2014, dated 2020).
Read-outs that look alike come from different tables or passages of the source.

Molecular target: T1, human TrkA (Homo sapiens, UniProt P04629)
T1 construct: purchased Lifetechnologies PV3144
Assay: Test Example 2-2: Human TrkA Inhibition Assay
Assay type: biochemical
Description: Seven point five μL per well of human TrkA (PV3144, Lifetechnologies, final concentration: 1 nmol/L) suspended in the assay buffer (100 mmol/L 4-(2-hydroxyethyl)-1-piperazineethanesulfonic acid (HEPES), 10 mmol/L magnesium chloride, 0.003 vol % Brij-35, 0.004 vol % Tween20 and 1 mmol/L dithiothreitol (DTT)) was applied in a 384 well plate and the plate was pre-incubated for 15 min at room temperature with 0.4 μL of each compound (final concentration: […]) dissolved in DMSO. Then, fluorescent substrate (FL-peptide 27, 760424, PerkinElmer, final concentration: 1.5 μmol/L) and ATP (final concentration […]) dissolved in the assay buffer was added in each well. After the incubation of 120 min at 37° C., fifteen μL of termination buffer (100 mmol/L HEPES, 40 mmol/L ethylenediaminetetraacetic acid (EDTA), 10 mmol/L magnesium chloride, 0.003 vol % Brij-35, 0.004 vol % Tween20, 1 mmol/L DTT and 0.16 vol % Coating Reagent 3) was added in each well to stop the enzyme reaction. Fluorescent intensities (FI) of phosphorylated and non-phosphorylated fluorescent substrates were measured by LabChip EZReader II (Caliper LifeSciences, Inc.), and conversion ratio (CR) was calculated by the following formula-1. The CR in the well applied with DMSO alone was used as a negative control and the CR in the well without applying TrkA was used as a positive control. The inhibitory effect of each compound on TrkA phosphorylation was calculated by the following formula-2. CR (%)=(FI of phosphorylated substrate/(FI of phosphorylated substrate+FI of non-phosphorylated substrate))×100 (Formula-1) Phosphorylation inhibition (%)=(1−(CR with compound treatment−CR of positive control)/(CR of negative control−CR of positive control))×100 (Formula-2) Inhibitory effect on TrkA phosphorylation (%)=(1−(CR in compound treated well−CR in positive control)/(CR in negative control−CR in positive control))×100.
The 50/o inhibitory concentration (IC50) was determined by the logistic regression using the inhibition data in 10 points at a range of 2 μmol/L to 0.1 nmol/L or 200 μmol/L to 10 nmol/L).

[1] = human TrkA inhibition, class symbols A/B/C, read-out: IC50_nM
[2] = human TrkA 1 nmol/L, 120 min at 37° C., read-out: TrkA inhibition IC50
[3] = class symbols, read-out: IC50_nM

T1 sequence (P04629 33-796): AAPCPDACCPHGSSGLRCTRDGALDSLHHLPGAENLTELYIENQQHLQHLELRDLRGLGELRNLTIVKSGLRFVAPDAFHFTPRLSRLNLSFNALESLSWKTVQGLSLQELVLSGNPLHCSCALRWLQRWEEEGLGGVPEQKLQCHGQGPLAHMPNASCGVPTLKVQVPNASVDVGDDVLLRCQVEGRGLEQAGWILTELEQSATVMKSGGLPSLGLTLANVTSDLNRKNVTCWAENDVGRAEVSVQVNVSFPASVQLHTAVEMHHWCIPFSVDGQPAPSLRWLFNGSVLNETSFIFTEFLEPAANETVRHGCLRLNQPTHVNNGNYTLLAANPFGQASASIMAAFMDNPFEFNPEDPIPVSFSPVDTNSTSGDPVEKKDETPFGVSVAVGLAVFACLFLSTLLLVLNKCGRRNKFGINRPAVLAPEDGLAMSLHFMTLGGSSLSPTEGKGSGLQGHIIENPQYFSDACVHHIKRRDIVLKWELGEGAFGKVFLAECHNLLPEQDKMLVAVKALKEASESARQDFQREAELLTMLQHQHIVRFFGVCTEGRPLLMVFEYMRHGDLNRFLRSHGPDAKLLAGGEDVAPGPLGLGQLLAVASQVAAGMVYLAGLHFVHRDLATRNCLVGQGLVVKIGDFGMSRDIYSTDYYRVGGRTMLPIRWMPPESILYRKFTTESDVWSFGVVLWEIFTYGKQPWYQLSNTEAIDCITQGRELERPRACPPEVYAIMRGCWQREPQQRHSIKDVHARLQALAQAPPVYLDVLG

IC50 [1] [nM] | SMILES | other results
< 100 | COCC[C@@H]1C[C@@H](NC(=O)Nc2c(C)c(C3=CCN(C(=O)OC(C)(C)C)CC3)nn2-c2ccccc2)[C@H](c2ccc(F)c(F)c2)N1C [Compound I-259] | –
100 to 1000 | COC(=O)C(c1ccco1)N1C[C@@H](NC(=O)Nc2c(C)c(-c3cnn(C)c3)nn2-c2ccccc2)[C@H](c2ccc(F)c(F)c2)C1 (stereo partly shown) [Compound I-177] | –
> 1000 | COCCC1C[C@@H](NC(=O)Nc2cc(-c3ccc(C(=O)OC)cc3)nn2C)[C@H](c2ccccc2)C1 (relative stereo) [Compound I-181] | –
< 100 | CCOc1nn(-c2ccccc2)c(NC(=O)N[C@@H]2CC(CCOC)C[C@H]2c2ccccc2)c1C (stereo partly shown) [Compound I-183] | –
– | Cc1c(-c2cnn(C)c2)nn(-c2ccccc2)c1NC(=O)N[C@@H]1C[C@@H](Oc2ccncc2)C[C@H]1c1ccccc1 (racemic) [Compound I-225] | IC50 [2]: 120 nM
< 100 | COCC[C@@H]1C[C@@H](NC(=O)Nc2c(C)c(-c3ccc(C(=O)OC(C)(C)C)cc3)nn2-c2ccccc2)[C@H](c2ccc(F)c(F)c2)N1C [Compound I-236] | –
– | COCC(CO)[C@@H]1C[C@@H](NC(=O)Nc2c(C)c(-c3cnn(C)c3)nn2-c2ccccc2)[C@H](c2ccccc2)C1 (stereo partly shown) [Compound I-239] | IC50 [2]: 76 nM
< 100 | COCC[C@@H]1C[C@@H](NC(=O)Nc2c(C)c(-c3cnn(C)c3)nn2-c2ccccc2)[C@H](c2ccc(F)c(F)c2)N1 [Compound I-208] | –
– | COCC[C@@H]1C[C@@H](NC(=O)Nc2c(C)c(C3=CCN(C(=O)OC)CC3)nn2-c2ccccc2)[C@H](c2ccccc2)C1 [Compound I-268] | IC50 [3]: < 100 nM
100 to 1000 | COCCN1C[C@@H](NC(=O)Nc2c(C)c(-c3cnn(C)c3)nn2-c2ccccc2)[C@H](c2ccccc2)[C@H]1CF [Compound I-251] | –
< 100 | COCC[C@@H]1C[C@@H](NC(=O)Nc2c(C)c(-c3ccc(C(=O)O)cc3)nn2-c2ccccc2)[C@H](c2ccc(F)c(F)c2)N1 [Compound I-260] | –
100 to 1000 | COCCC1C[C@H](NC(=O)Nc2c(C)c(-c3cnn(C)c3)nn2-c2ccccc2)[C@@H](c2ccccc2)C1 (stereo partly shown) [Compound I-213] | –
< 100 | COCCC1C[C@@H](NC(=O)Nc2c(C)c(-c3cnn(C)c3)nn2-c2ccccc2)[C@H](c2ccc(O)cc2)C1 (stereo partly shown) [Compound I-222] | –
100 to 1000 | COCC[C@@H]1C[C@@H](NC(=O)Nc2c(C)c(-c3cnn(C)c3)nn2-c2ccccc2)[C@H](c2ccccc2)N1 [Compound I-242] | –
< 100 | COCCC1C[C@@H](NC(=O)Nc2c(C)c(-c3ccc(C(=O)OC(C)(C)C)cc3)nn2-c2ccccc2)[C@H](c2ccccc2)C1 (stereo partly shown) [Compound I-206] | –
> 1000 | COCCC1C[C@@H](NC(=O)Nc2c(C)c(-c3cnn(C)c3)nn2-c2ccccc2)[C@H](c2ccc(F)c(F)c2)N1CCOC (stereo partly shown) [Compound I-197] | –
< 100 | COCC[C@@H]1C[C@@H](NC(=O)Nc2c(C)c(-c3ccc(OC)nc3)nn2-c2ccccc2)[C@H](c2ccc(F)c(F)c2)N1 [Compound I-257] | –
– | COCCN1C[C@@H](NC(=O)Nc2c(C)c(-c3cnn(C)c3)nn2-c2ccccc2)[C@H](c2ccc3nonc3c2)C1 (racemic) [Compound I-209] | IC50 [2]: 10 nM
100 to 1000 | COCC(c1ccco1)N1C[C@@H](NC(=O)Nc2c(C)c(-c3cnn(C)c3)nn2-c2ccccc2)[C@H](c2ccc(F)c(F)c2)C1 (stereo partly shown) [Compound I-186] | –
> 1000 | Cc1c(-c2cnn(C)c2)nn(-c2ccccc2)c1NC(=O)N[C@@H]1CN(C(C)C)C[C@H]1c1ccc(F)c(F)c1 [Compound I-194] | –
> 1000 | COCCC1C[C@@H](NC(=O)Nc2c(C)c(-c3cnn(C)c3)nn2-c2ccccc2)[C@H](c2ccc(F)c(F)c2)N1CC(=O)OC (stereo partly shown) [Compound I-198] | –
< 100 | Cc1c(-c2cnn(C)c2)nn(-c2ccccc2)c1NC(=O)N[C@@H]1CN(Cc2csc(Br)n2)C[C@H]1c1ccc(F)c(F)c1 [Compound I-205] | –

IC50 [1] [nM] | SMILES | other results
< 100 | CCNC(=O)c1ccc(-c2nn(-c3ccccc3)c(NC(=O)N[C@@H]3C[C@@H](CCOC)C[C@H]3c3ccccc3)c2C)cc1 [Compound I-264] | –
> 1000 | Cc1c(-c2cnn(C)c2)nn(-c2ccccc2)c1NC(=O)N[C@@H]1C[C@@H](Oc2ccccn2)C[C@H]1c1ccccc1 (racemic) [Compound I-223] | –
– | Cc1c(-c2cnn(C)c2)nn(-c2ccccc2)c1NC(=O)N[C@@H]1CN(CCOC(F)F)C[C@H]1c1ccccc1 (racemic) [Compound I-248] | IC50 [2]: 18 nM
– | Cc1c(-c2cnn(C)c2)nn(-c2ccccc2)c1NC(=O)N[C@@H]1CN(CCOC2CC2)C[C@H]1c1ccnc(F)c1 (racemic) [Compound I-267] | IC50 [2]: 24 nM
> 1000 | CNC(=O)c1ccc(-c2cc(NC(=O)N[C@@H]3CC(CCOC)C[C@H]3c3ccccc3)n(C)n2)cc1 (stereo partly shown) [Compound I-200] | –
< 100 | CCOc1nn(-c2ccccc2)c(NC(=O)N[C@@H]2CC(CCOC)C[C@H]2c2ccccc2)c1C (stereo partly shown) [Compound I-212] | –
> 1000 | COCCC1C[C@@H](NC(=O)Nc2c(C)c(-c3cnn(C)c3)nn2-c2ccccc2)[C@H](c2ccc(F)c(F)c2)N1Cc1ccccc1 (stereo partly shown) [Compound I-196] | –
> 1000 | COCC(COS(C)(=O)=O)[C@@H]1C[C@@H](NC(=O)Nc2c(C)c(-c3cnn(C)c3)nn2-c2ccccc2)[C@H](c2ccccc2)C1 (stereo partly shown) [Compound I-245] | –
< 100 | COCCC1C[C@@H](NC(=O)Nc2c(C)c(-c3ccnc(C)c3)nn2-c2ccccc2)[C@H](c2ccccc2)C1 (stereo partly shown) [Compound I-234] | –
> 1000 | COCCC1C[C@@H](NC(=O)Nc2cc(-c3cnc(C)nc3)nn2C)[C@H](c2ccccc2)C1 (stereo partly shown) [Compound I-219] | –
< 100 | COCC[C@@H]1C[C@@H](NC(=O)Nc2c(C)c(-c3cnc(C)nc3)nn2-c2ccccc2)[C@H](c2ccccc2)C1 [Compound I-263] | –
< 100 | Cc1ccc(CN2C[C@@H](NC(=O)Nc3c(C)c(-c4cnn(C)c4)nn3-c3ccccc3)[C@H](c3ccc(F)c(F)c3)C2)o1 [Compound I-193] | –
100 to 1000 | COCCN1C[C@@H](NC(=O)Nc2c(C)c(-c3cnn(C)c3)nn2-c2ccccc2)[C@H](c2ccnc(OC)c2)C1 (racemic) [Compound I-228] | –
< 100 | COCCC1C[C@@H](NC(=O)Nc2c(C)c(-c3cnn(C)c3)nn2-c2ccccc2)[C@H](c2ccc(F)c(F)c2)C1 (stereo partly shown) [Compound I-187] | –
< 100 | COCC[C@@H]1C[C@@H](NC(=O)Nc2c(C)c(-c3ccc(C(=O)O)cc3)nn2-c2ccccc2)[C@H](c2ccc(F)c(F)c2)N1C [Compound I-237] | –
100 to 1000 | COCCC1C[C@@H](NC(=O)Nc2cc(-c3ccc(C)nc3)nn2C)[C@H](c2ccccc2)C1 (stereo partly shown) [Compound I-220] | –
< 100 | COCCN1C[C@@H](NC(=O)Nc2c(C)c(-c3cnn(C)c3)nn2-c2ccccc2)[C@H](c2ccc(F)c(F)c2)C1 [Compound I-250] | –
– | COCC[C@@H]1C[C@@H](NC(=O)Nc2c(C)c(-c3cnn(C)c3)nn2-c2ccccc2)[C@H](c2ccccc2)[C@H]1C [Compound I-241] | IC50 [2]: 0.9 nM
< 100 | CCN1C(CCOC)C[C@@H](NC(=O)Nc2c(C)c(-c3cnn(C)c3)nn2-c2ccccc2)[C@@H]1c1ccc(F)c(F)c1 (stereo partly shown) [Compound I-178] | –
– | COCCN1C[C@@H](NC(=O)Nc2c(C)c(-c3cnn(C)c3)nn2-c2ccccc2)[C@H](c2ccc3c(c2)COC3)C1 (racemic) [Compound I-274] | IC50 [3]: 100 to 1000 nM
– | Cc1c(-c2cnn(C)c2)nn(-c2ccccc2)c1NC(=O)N[C@@H]1CN(Cc2ccc(Br)o2)C[C@H]1c1ccc(F)c(F)c1 [Compound I-190] | IC50 [2]: 1.3 nM
